Laboratory results as given in patent publication US9650338B1 (priority 2016, dated 2017).

Columns and labels:
[1] = test system: respiratory depression caused by LD50 of Promedol (Trimeperidine); test: Antagonism of respiratory depression caused by LD50 of Promedol; settings: rat, Promedol (Trimeperidine) 70 mg/kg (LD50)
[2] = test system: analgesic effects of the ED99 of morphine; test: Antagonism of the analgesic effect of the ED99 of morphine, mechanical irritation of the tail; settings: rat, under skin injection, morphine 5 mg/kg (ED99)
[3] = target: opiate receptor sites in the CNS; test: Competitive binding to opiate receptor sites in the CNS, mouse brain; settings: Brain of the mouse (Table 5, mean; spread in a separate column)
[4] = target: opiate receptor sites in the CNS; test: Competitive binding to opiate receptor sites in the CNS, rat brain, 3H-Naloxone

Structure (SMILES): CCC(=O)NC1CC(C)N(CCc2ccccc2)CC1C (stereo not shown) [N-[2,5-dimethyl-1-(2-phenylethyl)piperidin-4-yl]propanamide]
- Median Antagonistic activity AD50 (parenthetical is range) [1]: 5.1 (3.4-7.8) mg/kg
- Median Antagonistic activity AD50 (parenthetical is range) [2]: 1.2 (0.8-1.64) mg/kg
- IC50 [3]: 0.1 nM
- IC50 ([4]; Brain of the rate (Table 5, mean; spread in a separate column), read-out: IC50): 0.12 nM
- IC50 ([4]; brain of the rat, 3H-Naloxone (Table 4), read-out: Affinity IC50): 0.12 nM

Structure (SMILES): C=CCN1CC[C@]23c4c5ccc(O)c4O[C@H]2C(=O)CC[C@@]3(O)[C@H]1C5 [naloxone, 17-allyl-4,5a-epoxy-3,14-dihydroxymorphinan-6-one, reference compound]
- Median Antagonistic activity AD50 (parenthetical is range) [1]: 1.8 (1.1-3.2) mg/kg
- Median Antagonistic activity AD50 (parenthetical is range) [2]: 0.3 (0.22-0.39) mg/kg
